According to PubChem BioAssay AID2060894 (Molecular Pharmacology Branch, DTP, NCI, 2025):

Tested on: K12877-001-R-J1-PDC complex spheroid viability
Assay: Anticancer human tumor K12877-001-R-J1-PDC patient-derived lung adenocarcinoma cell line growth inhibition [RAS]
Conditions: for IC50: curve of first compound; for viability, T/C: stronger effect = lower value
Source text: RAS pathway inhibitors in Combinations in Complex Spheroids
A high-throughput screen of multi-cell type tumor spheroids was designed to identify active combinations of RAS pathway inhibitors and targeted small molecules. Complex spheroids include a stromal component modeled by human endothelial cells (HUVEC) and fibroblasts modeled by human mesenchymal stem cells (MSCs). The concentration ranges selected for each drug and investigational agent were based upon clinically achievable concentrations if the clinical Cmax of the agent was known.
Compounds. The drugs and investigational agents: abemaciclib (NSC768073), cobimetinib (NSC768068), divarasib (GDC6063, NSC841802), docetaxel (NSC628503), GDC-1971 (RLY-1971, NSC841576), gemcitabine (NSC613327), inavolisib (NSC800729), ipatasertib (NSC767898), KB-0742 (NSC834161), MRTX-1133 (NSC836407), osimertinib (NSC779217), RMC-4630 (NSC839698), RMC-6236 (NSC851965), RMC-6291 (NSC852671), Ro-3306 (NSC812927), sapanisertib (NSC764658), SN-38 (NSC673596), staurosporine (NSC755774), SY5609 (NSC837396), and tovorafenib (DAY101, NSC766906), were obtained from the National Cancer Institute (NCI) Developmental Therapeutics Program Chemical Repository. The FDA-approved anticancer drug set is available from the NCI Developmental Therapeutics Program. […] The stock solutions were prepared in dimethyl sulfoxide (DMSO, Sigma-Aldrich, St. Louis, MO, cat. D2650) at 800-fold the tested concentration and stored at -70 degrees C prior to their use. All drugs and investigational agents were tested over a range starting from a high concentration at or near the clinical Cmax and decreasing in half-log increments. If the clinical Cmax for an agent had not been determined, the highest concentration tested was 10 microM.
Cell Culture. All cells were maintained in an incubator at 37 degrees C and 5% CO2 with 95% humidity. The PDC lines were cultured according to standard operating procedures established by the NCI PDMR. All PDCs were thawed and cultured in Matrigel-coated flasks prepared with a working solution of 1X Ham's F-12 nutrient mix, without supplementation (Invitrogen, Waltham, MA, cat. 11765054), 100 U/mL penicillin-streptomycin (Invitrogen, cat. 15140122), and 2.5% Matrigel (Corning Inc., Corning, NY, cat. 354248) for the first three passages. The 362531-283-R-J2-PDC and 782815-120-R-J1-PDC lines were cultured in 6C/Colon 1B media, which includes advanced DMEM/F-12 (Thermo Fisher Scientific, cat. 12634028), 10 mM HEPES (Thermo Fisher Scientific, cat. 15630080), 1X GlutaMAX supplement (Thermo Fisher Scientific, cat. 35050061), 0.1 mg/mL primocin (InvivoGen, San Diego, CA, cat. ant-pm-2), 10% defined fetal bovine serum, heat inactivated (HyClone Laboratories Inc., Logan, UT, cat. SH30070.03HI), 50% L-WRN conditioned media (ATCC, cat. CRL-3276), 1.25 mM N-Acetyl-L-cysteine (Sigma-Aldrich, cat. A9165), 10 mM nicotinamide (Sigma-Aldrich, cat. N0636), 1X B-27 supplement (Thermo Fisher Scientific, cat. 17504044), 1X N-2 supplement (Thermo Fisher Scientific, cat. 17502048), 50 ng/mL human EGF (Thermo Fisher Scientific, cat. PHG0311), and 10 microM Y-27632 dihydrochloride (Tocris Bioscience, cat. 1254). The K12877-001-R-J1-PDC line was cultured in 6I media, which includes all 6C/Colon 1B media plus 10 ng/mL human FGF-10 (PeproTech, cat. 100-26), 1 ng/mL human FGF-2 (PeproTech, cat. 100-18B), 1 µM prostaglandin E2 (Tocris Bioscience, cat. 2296), […] hydrocortisone (Sigma-Aldrich, cat. H4001), and […] bovine insulin (Sigma-Aldrich, cat. I6634). The K86415-001-R-J1-PDC line was cultured in 6D media, which includes all 6C/Colon 1B media components minus the L-WRN conditioned media. The 485176-168-R4-J1-PDC was cultured in PANC media, which includes all 6C/Colon 1B media plus 100 ng/mL human FGF-10 (PeproTech, cat. 100-26), 500 nM SB-431542 (Selleckchem, cat. S1067), and 10 nM gastrin (Tocris Bioscience, cat. 3006). […]

[1] = second compound 0.0316 µM, first compound 0.0316 µM
[2] = second compound 0.0316 µM, first compound 0.1 µM
[3] = second compound 0.0316 µM, first compound 0.316 µM
[4] = second compound 0.0316 µM, first compound 1 µM
[5] = second compound 0.0316 µM, first compound 3.16 µM
[6] = second compound 0.0316 µM, first compound 10 µM
[7] = second compound 0.1 µM, first compound 0.0316 µM
[8] = second compound 0.1 µM, first compound 0.1 µM
[9] = second compound 0.1 µM, first compound 0.316 µM
[10] = second compound 0.1 µM, first compound 1 µM
[11] = second compound 0.1 µM, first compound 3.16 µM
[12] = second compound 0.1 µM, first compound 10 µM
[13] = second compound 0.316 µM, first compound 0.0316 µM
[14] = second compound 0.316 µM, first compound 0.1 µM
[15] = second compound 0.316 µM, first compound 0.316 µM
[16] = second compound 0.316 µM, first compound 1 µM
[17] = second compound 0.316 µM, first compound 3.16 µM
[18] = second compound 0.316 µM, first compound 10 µM
[19] = second compound 1 µM, first compound 0.0316 µM
[20] = second compound 1 µM, first compound 0.1 µM
[21] = second compound 1 µM, first compound 0.316 µM
[22] = second compound 1 µM, first compound 1 µM
[23] = second compound 1 µM, first compound 3.16 µM
[24] = second compound 1 µM, first compound 10 µM
[25] = second compound 3.16 µM, first compound 0.0316 µM
[26] = second compound 3.16 µM, first compound 0.1 µM
[27] = second compound 3.16 µM, first compound 0.316 µM
[28] = second compound 3.16 µM, first compound 1 µM
[29] = second compound 3.16 µM, first compound 3.16 µM
[30] = second compound 3.16 µM, first compound 10 µM
[31] = second compound 10 µM, first compound 0.0316 µM
[32] = second compound 10 µM, first compound 0.1 µM
[33] = second compound 10 µM, first compound 0.316 µM
[34] = second compound 10 µM, first compound 1 µM
[35] = second compound 10 µM, first compound 3.16 µM
[36] = second compound 10 µM, first compound 10 µM
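Note: spheroids exposed to agents for one week before readout.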

CC(C)NCC(C(=O)N1CCN(c2ncnc3c2C(C)CC3O)CC1)c1ccc(Cl)cc1 (stereo unspecified) + C#Cc1c(F)ccc2cc(O)cc(-c3ncc4c(N5CC6CCC(C5)N6)nc(OCC56CCCN5CC(F)C6)nc4c3F)c12
IC50 (second compound 0.0316 µM): 6.15 µM | IC50 (second compound 0.1 µM): 5.29 µM | IC50 (second compound 0.316 µM): 7.95 µM | IC50 (second compound 1 µM): 5.79 µM | IC50 (second compound 3.16 µM): 6.06 µM | IC50 (second compound 10 µM): 3.01 µM | viability, T/C [1]: 101% | viability, T/C [2]: 95.4% | viability, T/C [3]: 100% | viability, T/C [4]: 86.5% | viability, T/C [5]: 58.4% | viability, T/C [6]: 44% | viability, T/C [7]: 90% | viability, T/C [8]: 103% | viability, T/C [9]: 87.7% | viability, T/C [10]: 96.6% | viability, T/C [11]: 58.8% | viability, T/C [12]: 39% | viability, T/C [13]: 105% | viability, T/C [14]: 103% | viability, T/C [15]: 78.9% | viability, T/C [16]: 92.4% | viability, T/C [17]: 62% | viability, T/C [18]: 45.5% | viability, T/C [19]: 104% | viability, T/C [20]: 103% | viability, T/C [21]: 87.6% | viability, T/C [22]: 95.3% | viability, T/C [23]: 55.4% | viability, T/C [24]: 45.1% | viability, T/C [25]: 105% | viability, T/C [26]: 102% | viability, T/C [27]: 99.4% | viability, T/C [28]: 91.1% | viability, T/C [29]: 63.6% | viability, T/C [30]: 39.4% | viability, T/C [31]: 98% | viability, T/C [32]: 93.3% | viability, T/C [33]: 89% | viability, T/C [34]: 94.1% | viability, T/C [35]: 48% | viability, T/C [36]: 32.8%

CC(C)n1nc(-c2ccc3oc(N)nc3c2)c2c(N)ncnc21 + C#Cc1c(F)ccc2cc(O)cc(-c3ncc4c(N5CC6CCC(C5)N6)nc(OCC56CCCN5CC(F)C6)nc4c3F)c12
IC50 (second compound 0.0316 µM): 0.0253 µM | IC50 (second compound 0.1 µM): 0.0265 µM | IC50 (second compound 0.316 µM): 0.027 µM | IC50 (second compound 1 µM): 0.028 µM | IC50 (second compound 3.16 µM): 0.0255 µM | IC50 (second compound 10 µM): 0.0256 µM | viability, T/C (second compound 0.0316 µM, first compound 0.000316 µM): 105% | viability, T/C (second compound 0.0316 µM, first compound 0.001 µM): 88.2% | viability, T/C (second compound 0.0316 µM, first compound 0.00316 µM): 83% | viability, T/C (second compound 0.0316 µM, first compound 0.01 µM): 93.9% | viability, T/C [1]: 39.8% | viability, T/C [2]: 24.5% | viability, T/C (second compound 0.1 µM, first compound 0.000316 µM): 99.2% | viability, T/C (second compound 0.1 µM, first compound 0.001 µM): 86.2% | viability, T/C (second compound 0.1 µM, first compound 0.00316 µM): 82.4% | viability, T/C (second compound 0.1 µM, first compound 0.01 µM): 94.2% | viability, T/C [7]: 42.7% | viability, T/C [8]: 24% | viability, T/C (second compound 0.316 µM, first compound 0.000316 µM): 97% | viability, T/C (second compound 0.316 µM, first compound 0.001 µM): 102% | viability, T/C (second compound 0.316 µM, first compound 0.00316 µM): 88.1% | viability, T/C (second compound 0.316 µM, first compound 0.01 µM): 98.8% | viability, T/C [13]: 42.5% | viability, T/C [14]: 23.2% | viability, T/C (second compound 1 µM, first compound 0.000316 µM): 101% | viability, T/C (second compound 1 µM, first compound 0.001 µM): 104% | viability, T/C (second compound 1 µM, first compound 0.00316 µM): 91.7% | viability, T/C (second compound 1 µM, first compound 0.01 µM): 101% | viability, T/C [19]: 44.1% | viability, T/C [20]: 24% | viability, T/C (second compound 3.16 µM, first compound 0.000316 µM): 114% | viability, T/C (second compound 3.16 µM, first compound 0.001 µM): 93.3% | viability, T/C (second compound 3.16 µM, first compound 0.00316 µM): 91.7% | viability, T/C (second compound 3.16 µM, first compound 0.01 µM): 88.1% | viability, T/C [25]: 40.9% | viability, T/C [26]: 24.1% | viability, T/C (second compound 10 µM, first compound 0.000316 µM): 101% | viability, T/C (second compound 10 µM, first compound 0.001 µM): 84.5% | viability, T/C (second compound 10 µM, first compound 0.00316 µM): 82.7% | viability, T/C (second compound 10 µM, first compound 0.01 µM): 79.5% | viability, T/C [31]: 42.6% | viability, T/C [32]: 19.5%

C[C@@H](NC(=O)c1ncnc(N)c1Cl)c1ncc(C(=O)Nc2cc(C(F)(F)F)c(Cl)cn2)s1 + C#Cc1c(F)ccc2cc(O)cc(-c3ncc4c(N5CC6CCC(C5)N6)nc(OCC56CCCN5CC(F)C6)nc4c3F)c12
IC50 (second compound 0.0316 µM): > 10 µM | IC50 (second compound 0.1 µM): > 10 µM | IC50 (second compound 0.316 µM): > 10 µM | IC50 (second compound 1 µM): > 10 µM | IC50 (second compound 3.16 µM): > 10 µM | IC50 (second compound 10 µM): > 10 µM | viability, T/C [1]: 108% | viability, T/C [2]: 101% | viability, T/C [3]: 113% | viability, T/C [4]: 107% | viability, T/C [5]: 99% | viability, T/C [6]: 102% | viability, T/C [7]: 94.4% | viability, T/C [8]: 96.2% | viability, T/C [9]: 93.5% | viability, T/C [10]: 103% | viability, T/C [11]: 92.5% | viability, T/C [12]: 97.9% | viability, T/C [13]: 96.9% | viability, T/C [14]: 105% | viability, T/C [15]: 97.4% | viability, T/C [16]: 101% | viability, T/C [17]: 108% | viability, T/C [18]: 98.6% | viability, T/C [19]: 87.7% | viability, T/C [20]: 105% | viability, T/C [21]: 102% | viability, T/C [22]: 108% | viability, T/C [23]: 106% | viability, T/C [24]: 98.9% | viability, T/C [25]: 107% | viability, T/C [26]: 104% | viability, T/C [27]: 104% | viability, T/C [28]: 106% | viability, T/C [29]: 111% | viability, T/C [30]: 98.3% | viability, T/C [31]: 106% | viability, T/C [32]: 91.7% | viability, T/C [33]: 107% | viability, T/C [34]: 98% | viability, T/C [35]: 107% | viability, T/C [36]: 96.7%
